# Measured values taken from patent publication EP0466251A1, “Elfamycin-resistant mutants” (priority 1990, dated 1992).
# Tests used:
# [1] = test system: S. ramocissimus CBS 190.69; assay: growth of plated mycelium, minimal inhibitory concentration; assay type: cell-based; conditions: mycelium pregrown in YMG medium without mocimycin; 1 ml of a 16 hrs culture plated
# Description: (§1) Essentially identical results were obtained when for each of the strains spores were substituted by mycelium, pregrown in YMG medium without mocimycin.
# S. ramocissimus R1V [2] = assay: as above; assay type: cell-based; conditions: mycelium pregrown in YMG medium without mocimycin; 1 ml of a 16 hrs culture plated
# Description: as §1
# SrEF-Tu mutant A378T = target: T1, SrEF-Tu mutant A378T (Streptomyces ramocissimus, UniProt P29542, A379T); assay: in vitro poly(U) directed poly(phe) synthesis; assay type: biochemical, S. ramocissimus
# T1 construct: made in house; host or cells: E. coli PM1455
# Description: (§2) The sensitivity of SrEF-Tu mutants A378V and A378T to elfamycin was tested by in vitro studies. Both parent and mutant S. ramocissimus EF-Tu, after transformation of the respective cloned genes, were expressed in an E. coli strain encoding an elfamycin resistant EF-Tu. Cell-free extracts of these transformants were subsequently tested for elfamycin sensitivity of the translation apparatus, using a variation on the procedure described by C. Glöckner and H. Wolf (cited above). […] The parent SrEF-Tu reached 50% residual activity already at 1.6 mg/l. […]
# (§3) Plasmids pUSrT1-1, pUSrT1V-1 and pUSrT1T-1 were transformed to E. coli PM1455 (tufA, tufB::Mu, rpoB, recA56; P. van der Meide et al., Eur. J. Biochem. 130 (1983) 409-417); this strain has only one active tuf gene, which encodes an elfamycin resistant EF-Tu. […] The first 4 fractions having absorbance at 260 nm were pooled. […]
# (§4) At 0°C an incubation mixture was prepared consisting of 40 mM Tris-acetate pH 7.6, 10 mM Mg-acetate, 60 mM NH₄Cl, 5 mM β-mercaptoethanol, 1 mM ATP, 0.025 mM GTP, 2.5 mM phosphoenolpyruvate, 0.25 µg/ml pyruvate kinase, 0.8 mg/ml tRNA, 0.1 mg/ml poly(U), 95 µM phenylalanine, and 3 µCi/ml ³H-phenylalanine (57 Ci/mmol). […] Incorporation of ³H-phenylalanine was analyzed in a liquid scintillation counter. […]
# SrEF-Tu mutant A378V = target: T2, SrEF-Tu mutant A378V (Streptomyces ramocissimus, UniProt P29542, A379V); assay: in vitro poly(U) directed poly(phe) synthesis; assay type: biochemical, S. ramocissimus
# T2 construct: made in house; host or cells: E. coli PM1455
# Description: as §2, §3, §4
# [3] = test system: S. ramocissimus CBS 190.69; assay: germination and growth of spores on solid medium (HI-agar); assay type: cell-based; parameters: key to Germination and growth of spores: +++ = good growth; ++ = slow growth; + = very slow growth; - = no growth
# Description: (§5) Similar results were obtained on solid medium (HI-agar, Difco) containing 0 to 1 g/l mocimycin; spores from S. ramocissimus R1V and S. ramocissimus CBS 190.69 were diluted such that approximately 200 colony forming units were applied to each agar plate. Incubation of the plates was at 30°C for 5 days. For the control strain S. ramocissimus CBS 190.69 no colonies appeared above 0.1 g/l mocimycin; on the contrary, spores of S. ramocissimus strain R1V quantitatively were able to germinate and form colonies at least up to 0.75 g/l.
# S. ramocissimus R1V [4] = assay: as above; assay type: cell-based; parameters: key to Germination and growth of spores: +++ = good growth; ++ = slow growth; + = very slow growth; - = no growth
# Description: as §5
# [5] = 16 mg/l mocimycin, period of 40 minutes
# [6] = S-30 extract of E. coli PM1455 transformant, reaction time 10 minutes
# [7] = approximately 200 colony forming units per plate, 30°C for 5 days
# T2 sequence (P29542 whole entry A379V): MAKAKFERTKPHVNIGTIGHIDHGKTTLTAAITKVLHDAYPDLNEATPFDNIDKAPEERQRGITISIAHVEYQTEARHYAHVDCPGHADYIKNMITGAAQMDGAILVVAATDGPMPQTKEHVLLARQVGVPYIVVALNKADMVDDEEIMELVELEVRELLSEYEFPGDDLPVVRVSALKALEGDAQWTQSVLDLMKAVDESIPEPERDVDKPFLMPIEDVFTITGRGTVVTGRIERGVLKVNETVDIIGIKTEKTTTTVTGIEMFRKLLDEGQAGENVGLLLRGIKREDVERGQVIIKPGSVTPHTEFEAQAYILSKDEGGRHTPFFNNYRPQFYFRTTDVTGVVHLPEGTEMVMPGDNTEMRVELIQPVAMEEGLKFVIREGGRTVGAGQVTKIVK
# T1 sequence (P29542 whole entry A379T): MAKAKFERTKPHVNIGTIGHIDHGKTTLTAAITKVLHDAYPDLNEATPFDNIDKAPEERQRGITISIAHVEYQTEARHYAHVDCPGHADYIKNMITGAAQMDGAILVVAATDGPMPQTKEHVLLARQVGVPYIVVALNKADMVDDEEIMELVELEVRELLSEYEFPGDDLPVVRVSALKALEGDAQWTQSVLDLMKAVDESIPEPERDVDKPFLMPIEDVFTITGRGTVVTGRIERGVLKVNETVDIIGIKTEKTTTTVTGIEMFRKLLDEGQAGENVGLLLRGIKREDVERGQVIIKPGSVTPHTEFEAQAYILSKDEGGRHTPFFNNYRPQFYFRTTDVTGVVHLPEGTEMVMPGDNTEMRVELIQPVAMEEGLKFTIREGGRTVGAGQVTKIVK
smiles,measurement,setting,value
"C/C=C\C=C\[C@@H]1O[C@](O)([C@H](CC)C(=O)NC/C=C/C=C(\C)[C@@H](OC)[C@H](C)[C@@H]2O[C@H](/C=C/C=C/C=C(\C)C(=O)c3c(O)cc[nH]c3=O)[C@H](O)[C@@H]2O)[C@H](O)[C@H](O)C1(C)C [mocimycin, Mocimycin]",minimal inhibitory concentration,[1],150 µg/mL
same,minimal inhibitory concentration,S. ramocissimus R1V [2],750 µg/mL
same,efficiency of ³H-phenylalanine incorporation compared to the parallel incubation without mocimycin,SrEF-Tu mutant A378T; [5],80%
same,mocimycin concentration at a residual activity of 50% in the in vitro poly(phe) synthesis,SrEF-Tu mutant A378T; [6],160 mg/L
same,efficiency of ³H-phenylalanine incorporation compared to the parallel incubation without mocimycin,SrEF-Tu mutant A378V; [5],80%
same,mocimycin concentration at a residual activity of 50% in the in vitro poly(phe) synthesis,SrEF-Tu mutant A378V; [6],160 mg/L
same,mocimycin concentration above which no colonies appeared,[3]; [7],above 0.1 g/l
same,Germination and growth of spores,[3]; mocimycin 0.10 g/l,+
same,Germination and growth of spores,[3]; mocimycin 0.20 g/l,-
same,Germination and growth of spores,[3]; mocimycin 0.40 g/l,-
same,Germination and growth of spores,[3]; mocimycin 0.60 g/l,-
same,Germination and growth of spores,[3]; mocimycin 0.75 g/l,-
same,Germination and growth of spores,[3]; mocimycin 1.0 g/l,-
same,mocimycin concentration up to which spores were able to germinate and form colonies,S. ramocissimus R1V [4]; [7],≥ 0.75 g/L
same,Germination and growth of spores,S. ramocissimus R1V [4]; mocimycin 0.10 g/l,+++
same,Germination and growth of spores,S. ramocissimus R1V [4]; mocimycin 0.20 g/l,+++
same,Germination and growth of spores,S. ramocissimus R1V [4]; mocimycin 0.40 g/l,++
same,Germination and growth of spores,S. ramocissimus R1V [4]; mocimycin 0.60 g/l,++
same,Germination and growth of spores,S. ramocissimus R1V [4]; mocimycin 0.75 g/l,+
same,Germination and growth of spores,S. ramocissimus R1V [4]; mocimycin 1.0 g/l,-
